According to ChEMBL document CHEMBL1201862, “PubChem BioAssay data set” (2004):
Active and inactive are the calls of the source.

Assays:
Streptococcus = assay: GAS UMAA2166 growth inhibition – luminescence, BacTiterGlo, counter-screen for streptokinase expression inhibitor project, dose response (AID 1915); assay type: functional, organism-based;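 also: potency for reduction of bacterial viability or growth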
Exodeoxyribonuclease V = target: T1, Exodeoxyribonuclease V (Escherichia coli (strain K12), UniProt P04993+P07648+P08394); assay: RecBCD inhibition via phage-restricted bacterial growth – absorbance, V66 E. coli, mutant T4 phage, counter-screen for AddAB inhibitor project, dose response (AID 492957); assay type: functional, cell-based, Escherichia coli str. K-12 substr. MG1655
T1 sequence (P04993 whole entry): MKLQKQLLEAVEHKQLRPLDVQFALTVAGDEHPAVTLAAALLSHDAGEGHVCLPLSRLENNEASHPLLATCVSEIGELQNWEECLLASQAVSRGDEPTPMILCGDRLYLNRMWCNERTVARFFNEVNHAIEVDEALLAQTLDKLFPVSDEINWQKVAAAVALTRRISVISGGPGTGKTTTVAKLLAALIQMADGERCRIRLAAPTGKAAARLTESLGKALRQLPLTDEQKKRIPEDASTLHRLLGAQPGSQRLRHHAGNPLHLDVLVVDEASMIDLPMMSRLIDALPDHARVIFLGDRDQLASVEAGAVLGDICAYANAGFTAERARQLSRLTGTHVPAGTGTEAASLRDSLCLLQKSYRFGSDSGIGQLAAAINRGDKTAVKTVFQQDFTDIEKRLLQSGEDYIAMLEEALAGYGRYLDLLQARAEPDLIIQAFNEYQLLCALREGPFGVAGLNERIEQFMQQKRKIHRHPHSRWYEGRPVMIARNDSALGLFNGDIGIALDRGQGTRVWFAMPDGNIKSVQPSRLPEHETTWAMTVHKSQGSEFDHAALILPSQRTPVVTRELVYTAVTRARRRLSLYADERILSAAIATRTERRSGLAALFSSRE
T1 sequence (P07648 whole entry): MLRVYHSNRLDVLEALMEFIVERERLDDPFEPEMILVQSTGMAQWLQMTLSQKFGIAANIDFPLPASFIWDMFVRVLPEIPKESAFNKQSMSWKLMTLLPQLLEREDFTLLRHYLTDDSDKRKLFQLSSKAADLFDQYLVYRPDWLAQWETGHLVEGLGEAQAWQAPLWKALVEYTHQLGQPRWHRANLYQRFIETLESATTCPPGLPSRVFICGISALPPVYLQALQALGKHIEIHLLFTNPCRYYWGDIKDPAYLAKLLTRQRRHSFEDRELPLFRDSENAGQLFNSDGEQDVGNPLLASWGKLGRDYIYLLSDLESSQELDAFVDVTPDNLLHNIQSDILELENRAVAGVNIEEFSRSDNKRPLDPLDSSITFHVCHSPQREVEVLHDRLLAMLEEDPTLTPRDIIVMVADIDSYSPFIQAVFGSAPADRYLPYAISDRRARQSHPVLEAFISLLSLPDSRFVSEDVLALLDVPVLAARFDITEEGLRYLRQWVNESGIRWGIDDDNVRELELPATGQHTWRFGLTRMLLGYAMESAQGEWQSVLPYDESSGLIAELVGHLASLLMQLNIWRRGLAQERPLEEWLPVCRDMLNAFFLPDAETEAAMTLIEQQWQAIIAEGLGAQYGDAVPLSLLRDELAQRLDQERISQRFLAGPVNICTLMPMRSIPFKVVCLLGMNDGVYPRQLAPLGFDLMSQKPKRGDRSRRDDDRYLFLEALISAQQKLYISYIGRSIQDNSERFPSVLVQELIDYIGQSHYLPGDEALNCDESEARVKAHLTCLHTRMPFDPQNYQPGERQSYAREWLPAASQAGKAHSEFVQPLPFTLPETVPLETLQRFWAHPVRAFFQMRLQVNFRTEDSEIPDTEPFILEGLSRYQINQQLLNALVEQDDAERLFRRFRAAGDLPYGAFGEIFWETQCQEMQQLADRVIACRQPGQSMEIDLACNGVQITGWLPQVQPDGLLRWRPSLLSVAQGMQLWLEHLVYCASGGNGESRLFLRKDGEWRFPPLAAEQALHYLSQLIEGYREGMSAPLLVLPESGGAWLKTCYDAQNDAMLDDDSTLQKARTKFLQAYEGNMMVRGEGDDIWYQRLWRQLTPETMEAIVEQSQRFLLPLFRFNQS
T1 sequence (P08394 whole entry): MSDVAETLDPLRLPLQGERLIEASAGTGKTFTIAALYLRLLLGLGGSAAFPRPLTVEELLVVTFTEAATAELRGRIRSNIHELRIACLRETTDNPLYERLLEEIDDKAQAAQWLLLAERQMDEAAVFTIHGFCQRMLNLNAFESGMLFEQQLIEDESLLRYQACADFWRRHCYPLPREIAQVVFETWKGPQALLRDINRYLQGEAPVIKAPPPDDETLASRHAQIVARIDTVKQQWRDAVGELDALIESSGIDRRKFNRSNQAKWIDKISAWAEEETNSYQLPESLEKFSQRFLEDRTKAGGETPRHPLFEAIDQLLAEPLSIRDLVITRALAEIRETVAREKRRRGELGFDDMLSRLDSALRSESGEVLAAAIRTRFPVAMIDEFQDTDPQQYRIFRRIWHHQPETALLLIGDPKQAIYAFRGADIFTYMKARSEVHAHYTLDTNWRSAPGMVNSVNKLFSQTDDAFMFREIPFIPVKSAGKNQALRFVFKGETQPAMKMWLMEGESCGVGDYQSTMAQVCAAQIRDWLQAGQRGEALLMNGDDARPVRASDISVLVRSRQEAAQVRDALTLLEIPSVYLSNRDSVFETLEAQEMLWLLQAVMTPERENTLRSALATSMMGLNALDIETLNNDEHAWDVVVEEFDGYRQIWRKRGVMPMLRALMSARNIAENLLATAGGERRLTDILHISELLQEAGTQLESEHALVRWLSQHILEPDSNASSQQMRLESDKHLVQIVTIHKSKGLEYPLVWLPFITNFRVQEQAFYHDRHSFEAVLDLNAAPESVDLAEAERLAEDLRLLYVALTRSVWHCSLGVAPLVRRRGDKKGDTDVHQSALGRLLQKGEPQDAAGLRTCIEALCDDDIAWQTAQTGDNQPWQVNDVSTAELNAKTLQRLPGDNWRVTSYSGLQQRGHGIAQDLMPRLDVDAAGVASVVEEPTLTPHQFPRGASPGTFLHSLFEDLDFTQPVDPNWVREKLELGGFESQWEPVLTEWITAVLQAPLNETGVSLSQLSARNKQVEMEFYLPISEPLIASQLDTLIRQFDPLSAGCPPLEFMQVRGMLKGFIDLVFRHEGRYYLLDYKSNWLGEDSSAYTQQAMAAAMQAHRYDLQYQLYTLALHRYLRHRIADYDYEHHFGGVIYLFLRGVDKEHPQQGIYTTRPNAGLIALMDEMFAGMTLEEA

| SMILES | EC50 (Streptococcus) | IC50 (Exodeoxyribonuclease V) |
| --- | --- | --- |
| COc1ccc(C(NC(=O)C(C)C)c2ccc3cccnc3c2O)cc1 (centres undefined) | > 150 µM (not active) | > 119 µM (inactive) |
| O=C(Cc1ccc([N+](=O)[O-])cc1)N/N=C/c1ccc([N+](=O)[O-])o1 | 21.7 µM (active) | > 39.5 µM (inactive) |
